Results published in ChEMBL document CHEMBL1255252, “E240V substitution increases catalytic efficiency toward ceftazidime in a new natural TEM-type extended-spectrum beta-lactamase, TEM-149, from Enterobacter aerogenes and Serratia marcescens clinical isolates” (2008).
Values after ≈ are worked out from the molar mass of the structure shown.

Experiments:
[1] = Activity of Beta-lactamase TEM-149 expressed in Escherichia coli HB101
[2] = Ratio of Kcat to Km for Beta-lactamase TEM-149 expressed in Escherichia coli HB101
[3] = Activity of Beta-lactamase TEM-149 T182M mutant expressed in Escherichia coli HB101
[4] = Ratio of Kcat to Km for Beta-lactamase TEM-149 T182M mutant expressed in Escherichia coli HB101
[5] = Activity of Beta-lactamase TEM-10
[6] = Ratio of Kcat to Km for Beta-lactamase TEM-10
Serratia marcescens = assay: Antimicrobial activity against Serratia marcescens isolate CT-118 by broth macrodilution method; type: functional
Escherichia coli [7] = assay: Antimicrobial activity against Escherichia coli HB101 expressing recombinant plasmid encoded TEM-149 by broth macrodilution method; type: functional
Escherichia coli [8] = assay: Antimicrobial activity against Escherichia coli HB101 harboring empty vector pBK-SK by broth macrodilution method; type: functional
Escherichia coli [9] = assay: Antimicrobial activity against Escherichia coli HB101 expressing plasmid encoded TEM-149 T182M mutant by broth macrodilution method; type: functional
Klebsiella aerogenes = assay: Antimicrobial activity against Enterobacter aerogenes isolate SS-13 by broth macrodilution method; type: functional

Row | Structure (SMILES) | Km [1] [µM] | kcat [1] [s⁻¹] | kcat/Km [2] [M⁻¹ s⁻¹] | Km [3] [µM] | kcat [3] [s⁻¹] | kcat/Km [4] [M⁻¹ s⁻¹] | Km [5] [µM] | kcat [5] [s⁻¹] | kcat/Km [6] [M⁻¹ s⁻¹] | MIC (Serratia marcescens) [µg/mL] | MIC (Escherichia coli [7]) [µg/mL] | MIC (Escherichia coli [8]) [µg/mL] | MIC (Escherichia coli [9]) [µg/mL] | MIC (Klebsiella aerogenes) [µg/mL]
1 | CC1(C)S[C@@H]2[C@H](NC(=O)[C@H](N)c3ccccc3)C(=O)N2[C@H]1C(=O)O | 5 | 5.4 | 1.08e+06 | 19 | 2.4 | 127000 | 4 | 12.5 | 3.1e+06 |  |  |  |  | 
2 | CC(C)(O/N=C(\C(=O)N[C@@H]1C(=O)N2C(C(=O)[O-])=C(C[n+]3ccccc3)CS[C@H]12)c1csc(N)n1)C(=O)O [CEFTAZIDIME] | 19 | 8.3 | 440000 | 26 | 8.3 | 320000 | 607 | 17 | 28000 | > 64 | > 64 | > 64 | 0.5 (≈ 0.915 µM) | > 64
3 | CO/N=C(\C(=O)N[C@@H]1C(=O)N2C(C(=O)[O-])=C(C[N+]3(C)CCCC3)CS[C@H]12)c1csc(N)n1 | 16 | 2.4 | 150000 | 30 | 0.43 | 14000 |  |  |  | > 64 | 8 | 1 (≈ 2.08 µM) | < 0.125 | > 64
4 | CCN1CCN(C(=O)N[C@@H](C(=O)N[C@@H]2C(=O)N3[C@@H]2SC(C)(C)[C@@H]3C(=O)O)c2ccccc2)C(=O)C1=O [PIPERACILLIN] | 1.4 | 2.7 | 1.92e+06 | 3.4 | 5 | 1.47e+06 |  |  |  | > 256 | > 256 | 32 (≈ 61.8 µM) | 1 (≈ 1.93 µM) | > 256
5 | CC1(C)S[C@@H]2[C@H](NC(=O)[C@H](N)c3ccc(O)cc3)C(=O)N2[C@H]1C(=O)O [AMOXICILLIN] |  |  |  |  |  |  |  |  |  | > 64 | > 64 |  | 8 (≈ 21.9 µM) | > 64
6 | C[C@H]1[C@H](NC(=O)/C(=N\OC(C)(C)C(=O)O)c2csc(N)n2)C(=O)N1S(=O)(=O)O [AZTREONAM] | 51 | 4.7 | 92000 | 27 | 3.6 | 130000 | 28 | 2 | 70000 | > 64 | > 64 | 64 (≈ 147 µM) | < 0.125 | > 64
7 | CO/N=C(\C(=O)N[C@@H]1C(=O)N2C(C(=O)O)=C(COC(C)=O)CS[C@H]12)c1csc(N)n1 [CEFOTAXIME] | 43 | 0.07 | 1600 | 32 | 0.41 | 13000 | 30 | 0.3 | 10000 | > 128 | 1 | 4 (≈ 8.78 µM) | < 0.125 | > 128
8 | CC1(C)S[C@@H]2[C@H](NC(=O)Cc3ccccc3)C(=O)N2[C@H]1C(=O)O | 0.6 | 3.5 | 5.8e+06 | 0.7 | 10.5 | 1.5e+07 | 2 | 51 | 2.55e+07 |  |  |  |  | 
9 | Cc1nnc(SCC2=C(C(=O)O)N3C(=O)[C@@H](NC(=O)Cn4cnnn4)[C@H]3SC2)s1 [CEFAZOLIN] | 68 | 2.2 | 32000 | 35 | 0.56 | 16000 | 417 | 12.5 | 30000 | > 64 | 32 | 4 (≈ 8.8 µM) | 1 (≈ 2.2 µM) | > 64
